# According to article PMC11898701, “Evaluating Therapeutic Efficacy of the Vascular Disrupting Agent OXi8007 Against Kidney Cancer in Mice” (Cancers, 2025):
# Tests used:
# [1] = test system: orthotopic XP258 human tumor xenografts; assay: Long-term therapy of XP258 human tumor xenografts; assay type: in vivo, mouse; details: XP258 in NOD/SCID mice; OXi8007 250 mg/kg IP twice weekly, cabozantinib 3 mg/kg oral daily
# Description: The animal procedures were approved by the UT Southwestern Medical Center Institutional Animal Care and Use Committee under APNs 2017-102152 and 2018-102344-CORE. Renca-luc orthotopic tumors were induced by inserting tumor tissue (~1 mm^3) harvested from a donor mouse into the right kidney of syngeneic BALB/c mice (age 8 weeks, male and female; Envigo, Indianapolis, IN, USA), as described previously. Orthotopic XP258 tumors (derived from a patient with pT3aN0M1 clear cell RCC) were obtained from the UT Southwestern Kidney Cancer SPORE [53, 54] and maintained by serial passage. Tumors were induced by inserting tumor tissues from a donor tumor into the left kidney capsule of female NOD/SCID mice (Envigo).
# (§1) OXi8007, synthesized by the Pinney Laboratory using published procedures, was dissolved in saline, verified to be in the pH range 7.3 to 7.5, and dosed at 250 mg/kg (IP). Cabozantinib (in PEG400 and ultrapure H2O (Milli-Q)) was administered at 3 mg/kg by oral gavage. Anti-PD-1 (10 mg/kg, Bio X Cell, Lebanon, NH, USA) and anti-CTLA-4 (5 mg/kg, Bio X Cell, Lebanon, NH) solutions were administered (IP) on the day before OXi8007 […].
# We evaluated the longitudinal effects of OXi8007 alone and in combination with drugs currently favored for treating kidney cancer. For Renca-luc tumor-bearing mice, BLI was performed at least once a week to estimate tumor size, and mice were weighed weekly to adjust the dose as needed. Two treatment cohorts examined syngeneic orthotopic Renca-luc tumors in male BALB/c mice. Treatment started when the tumors reached about 1 × 10^6 photons/s peak total flux on BLI. The first cohort examined OXi8007 with cabozantinib. Mice were divided into four groups. Mice were assigned to groups as soon as there were sufficient to add the same numbers of animals to each group. The specific assignment was defined using the random number function in Excel. As such, each group included both faster- and slower-growing tumors. […]
# [2] = test system: orthotopic Renca-luc tumors; assay: Long-term therapy with OXi8007 and/or cabozantinib; assay type: in vivo, mouse
# Experimental: as §1
# We evaluated the longitudinal effects of OXi8007 alone and in combination with drugs currently favored for treating kidney cancer. For Renca-luc tumor-bearing mice, BLI was performed at least once a week to estimate tumor size, and mice were weighed weekly to adjust the dose as needed. Two treatment cohorts examined syngeneic orthotopic Renca-luc tumors in male BALB/c mice. Treatment started when the tumors reached about 1 × 10^6 photons/s peak total flux on BLI. The first cohort examined OXi8007 with cabozantinib. Mice were divided into four groups. Mice were assigned to groups as soon as there were sufficient to add the same numbers of animals to each group. The specific assignment was defined using the random number function in Excel. […] The second cohort was treated with CKIs and OXi8007 using four groups: Group 5 (OXi8007 + anti-PD-1 (10 mg/kg) + anti-CTLA-4 (5 mg/kg); n = 4), Group 6 (saline + anti-PD-1+ anti-CTLA-4; n = 3), Group 7 (saline + anti-PD-1; n = 3), and Group 8 (saline + anti-CTLA-4; n = 4). CKI antibodies were administered thrice weekly (M, W, F) for the first two weeks after the first treatment with OXi8007, which was administered twice weekly. […] Initial tumor growth was confirmed by palpation, and the mice were assigned to groups such that the first mouse with a confirmed tumor was assigned to Group 5, next to Group 6, etc., ensuring that all groups had both faster- and slower-growing tumors. […] Tumor size (BLI signal) and mouse body weights were compared using an ANOVA and multiple comparisons at a significance level of p < 0.05. Kaplan–Meier survival curves were compared using a non-parametric log-rank test using SAS software (SAS Institute Inc., SAS Viya for learners 4, Cary, NC, USA).
# [3] = test system: subcutaneous Renca tumors; design: method as in PMID 33954115; details: 10 mg/kg, day 14; cited from earlier work
smiles,measurement,setting,value
"COc1cc2nccc(Oc3ccc(NC(=O)C4(C(=O)Nc5ccc(F)cc5)CC4)cc3)c2cc1OC [cabozantinib, reference compound]",Survival versus controls,[1],significantly enhanced survival
same,Body weight versus untreated control mice,"[2]; Renca-luc BALB/c mice, over course of treatment",significant weight loss
same,Tumor growth delay (BLI),"[2]; Renca-luc, versus control",significant tumor growth delay
same,Median survival time,"[2]; Renca-luc, OXi8007 250 mg/kg IP twice weekly, cabozantinib 3 mg/kg oral daily",64 days
same,Tumor size reduction,[3],50%
